Assay results: ChEMBL document CHEMBL3396945, “Modified calanolides incorporated with furan-2-nitro mimics against Mycobacterium tuberculosis” (2015)
Converted amounts (≈) assume the structure as drawn.

Tests used:
[1] = tested on: Mycobacterium tuberculosis; assay: microbe, parasite or virus in culture; format: functional
[2] = tested on: Mycobacterium tuberculosis; assay: microbe, parasite or virus in culture; format: functional; remark: listed apart in the source

Structure (SMILES)	MIC [1]	MIC [2]
CCCc1cc(=O)oc2c1c1c(c3oc(C(=O)OCC)cc32)C=CC(C)(C)O1	> 50 µg/mL	> 50 µg/mL
CCCc1cc(=O)oc2c1c1c(c3oc(C(=O)O)cc32)C=CC(C)(C)O1	> 50 µg/mL	> 50 µg/mL
CCCc1cc(=O)oc2c1c1c(c3oc(C(=O)NN)cc32)C=CC(C)(C)O1	50 µg/mL (≈ 136 µM)	> 50 µg/mL
CCCc1cc(=O)oc2c1c1c(c3oc(C(=O)NNC(=O)c4ccncc4)cc32)C=CC(C)(C)O1	25 µg/mL (≈ 52.8 µM)	> 50 µg/mL
CCCc1cc(=O)oc2c1c(OCCN1CCOCC1)cc1oc(C(=O)OCC)cc12	> 50 µg/mL	> 50 µg/mL
CCCc1cc(=O)oc2c1c(OCCN1CCOCC1)cc1oc(C(=O)O)cc12	> 50 µg/mL	> 50 µg/mL
CCCc1cc(=O)oc2c1c(OCCN1CCOCC1)cc1oc(C(=O)NN)cc12	> 50 µg/mL	> 50 µg/mL
CCCc1cc(=O)oc2c1c1c(c3oc(NC(=O)OCC)cc32)C=CC(C)(C)O1	> 50 µg/mL	> 50 µg/mL
CCCc1cc(=O)oc2c1c1c(c3oc(C#N)cc32)C=CC(C)(C)O1	> 50 µg/mL	> 50 µg/mL
CCCc1cc(=O)oc2c1c1c(c3oc(C(=O)N=[N+]=[N-])cc32)C=CC(C)(C)O1	> 50 µg/mL	> 50 µg/mL
CCCc1cc(=O)oc2c1c(OCCN1CCOCC1)cc1oc(C#N)cc12	> 50 µg/mL	> 50 µg/mL
CCCc1cc(=O)oc2c1c(OCCN1CCOCC1)cc1oc(/C(N)=N\O)cc12	> 50 µg/mL	> 50 µg/mL
CCCc1cc(=O)oc2c1c(OCCN1CCOCC1)cc1oc(C(=N)N)cc12	> 50 µg/mL	> 50 µg/mL
CCCc1cc(=O)oc2c1c(OCCN1CCOCC1)cc1oc(-c3noc(=O)[nH]3)cc12	> 50 µg/mL	> 50 µg/mL
CCCc1cc(=O)oc2c1c(OCCN1CCOCC1)cc1oc(-c3noc(C)n3)cc12	> 50 µg/mL	> 50 µg/mL
CCCc1cc(=O)oc2c1c(OCCN1CCOCC1)cc1oc(-c3noc(C(F)(F)F)n3)cc12	> 50 µg/mL	> 50 µg/mL
